Patent US8399487B2, “Pyrazole compounds and uses thereof” (Dart NeuroScience (Cayman) Ltd., priority 2006, dated 2013)
Entries after “also recorded” stand apart in the source; their conditions may differ.

System: contextual memory in C57BL/6 male mice
Experiment: Contextual Memory Assay: Fear Conditioning
Type: in vivo
Details: I.P. 0.01 mg/kg, injected 20 minutes before training, 2 training trials, tested 24 hours after training (FIG. 1)
Source text: The ability of a compound to modulate cognitive behavior can be evaluated using the following assay to measure memory after contextual fear conditioning.
Contextual Memory Assay: Fear Conditioning
Contextual memory is a form of Pavlovian fear conditioning in which a naïve mouse is placed into a novel chamber (context) containing distinct visual, olfactory and tactile cues. After a couple of minutes of acclimation, the mouse receives a brief, mild electric shock to its feet. From this negative experience, the mouse will remember for months that that chamber is dangerous. When placed back into the same context at some later time after training, the mouse's natural response to danger is to “freeze,” sitting stone still for many seconds. This is similar to what happens to humans when they experience fear. The percent of time during an observation period that the mouse spends frozen represents a quantitative measure (memory score) of its memory of the context. […]
To assess contextual memory, a modified contextual fear conditioning task originally developed for evaluation of memory in CREB knock-out mice was used (Bourtchouladze, R., et. al., Cell, 1994, 79, 59-68). […] 24 hours after training, the mouse was placed into the same training chamber and contextual memory was assessed by scoring freezing behavior (‘freezing’ serves as memory score). […]

SMILES | contextual memory (freezing to context 24 hr after training)
CN(C)C(=O)c1ccc(-c2cc(C(F)(F)F)n(C)n2)s1 [Compound 162, 5-(1-Methyl-5-trifluoromethyl-1H-pyrazol-3-yl)-thiophene-2-carboxylic acid dimethylamide] | significantly enhanced contextual memory; also recorded: significantly facilitated freezing to context
Cn1nc(-c2ccc(C(=O)N3CCCCC3)s2)cc1C(F)(F)F [Compound 177, [5-(1-Methyl-5-trifluoromethyl-1H-pyrazol-3-yl)-thiophen-2-yl]-piperidin-1-yl-methanone] | significantly enhanced contextual memory; also recorded: significantly facilitated freezing to context
